ChEMBL document CHEMBL3272133, “1-[4-(4-Chlorophenyl)-2-(2,6-dichlorophenylthio)-n-butyl]-1H-imidazole nitrate, a new potent antifungal agent” (J Med Chem, 1978)
Activity calls are given as the source filed them. The rule behind the calls is not given here.

Experiments:
Microsporum canis = assay: Antifungal activity against Microsporum canis assessed as growth inhibition by agar dilution method; format: functional
Candida albicans [1] = assay: Antifungal activity against mixed infection of Candida albicans infected in mouse assessed as noninfected animals at 2% formulation administered vaginally bid for 4 days measured on day 7 relative to placebo; format: functional
Staphylococcus aureus [2] = assay: Antibacterial activity against Staphylococcus aureus No. 14154 assessed as growth inhibition by broth microdilution method; format: functional
[3] = test system: Trichophyton mentagrophytes; assay: Antifungal activity against Trichophyton mentagrophytes infected in guinea pig assessed as noninfected animals at 0.5% formulation in steryl alcohol, cetyl alcohol, Span 60, Tween 60, propylene glycol, mineral oil, and water administered qd for 5 days measured on day 7; format: functional
Streptococcus pyogenes = assay: Antibacterial activity against Streptococcus pyogenes No. 8668 assessed as growth inhibition by broth microdilution method; format: functional
[4] = Antifungal activity against Trichophyton concentricum assessed as growth inhibition by agar dilution method; format: functional
Candida albicans [5] = assay: Antifungal activity against Candida albicans infected in mouse assessed as noninfected animals at 1% formulation in neat PEG 400 solution administered vaginally bid for 4 days measured on day 7 relative to placebo; format: functional
[6] = test system: Trichophyton mentagrophytes; assay: Antifungal activity against Trichophyton mentagrophytes infected in guinea pig assessed as noninfected animals at 0.5% formulation in steryl alcohol, cetyl alcohol, Span 60, Tween 60, propylene glycol, mineral oil, and water administered qd for 5 days measured on day 4; format: functional
Epidermophyton floccosum = assay: Antifungal activity against Epidermophyton floccosum assessed as growth inhibition by agar dilution method; format: functional
[7] = test system: Trichophyton mentagrophytes; assay: Antifungal activity against Trichophyton mentagrophytes infected in guinea pig assessed as noninfected animals at 0.5% formulation in steryl alcohol, cetyl alcohol, Span 60, Tween 60, propylene glycol, mineral oil, and water administered qd for 5 days measured on day 14; format: functional
Candida albicans [8] = assay: Antifungal activity against Candida albicans infected in mouse assessed as noninfected animals at 2% formulation in modified PEG 400 solution administered vaginally bid for 4 days measured on day 7 relative to placebo; format: functional, organism-based
Candida albicans [9] = assay: Antifungal activity against mixed infection of Candida albicans infected in mouse assessed as noninfected animals at 0.5% formulation administered vaginally bid for 4 days measured 6 hrs post last dose relative to placebo; format: functional
Candida albicans [10] = assay: Antifungal activity against mixed infection of Candida albicans infected in mouse assessed as noninfected animals at 1% formulation administered vaginally bid for 4 days measured 6 hrs post last dose relative to placebo; format: functional
Candida albicans [11] = assay: Antifungal activity against mixed infection of Candida albicans infected in mouse assessed as noninfected animals at 2% commercial cream formulation administered vaginally bid for 4 days measured 6 hrs post last dose relative to placebo; format: functional
Staphylococcus aureus [12] = assay: Antibacterial activity against Staphylococcus aureus No. 6538 P assessed as growth inhibition by broth microdilution method; format: functional
[13] = test system: Trichophyton mentagrophytes; assay: Antifungal activity against Trichophyton mentagrophytes assessed as growth inhibition by agar dilution method; format: functional
Cryptococcus neoformans = assay: Antifungal activity against Cryptococcus neoformans assessed as growth inhibition by broth dilution method; format: functional
Candida albicans [14] = assay: Antifungal activity against mixed infection of Candida albicans infected in mouse assessed as noninfected animals at 0.2% formulation administered vaginally bid for 4 days measured 6 hrs post last dose relative to placebo; format: functional
Enterococcus faecalis = assay: Antibacterial activity against Streptococcus faecalis No. 8043-2 assessed as growth inhibition by broth microdilution method; format: functional
Candida albicans [15] = assay: Antifungal activity against Candida albicans infected in mouse assessed as noninfected animals at 0.5% formulation in neat PEG 400 solution administered vaginally bid for 4 days measured on day 7 relative to placebo; format: functional
Candida albicans [16] = assay: Antifungal activity against Candida albicans infected in mouse assessed as noninfected animals at 4% formulation in neat PEG 400 solution administered vaginally bid for 4 days measured 6 hrs post last dose relative to placebo; format: functional
Candida albicans [17] = assay: Antifungal activity against Candida albicans infected in mouse assessed as noninfected animals at 4% formulation in neat PEG 400 solution administered vaginally bid for 4 days measured on day 7 relative to placebo; format: functional
Candida albicans [18] = assay: Antifungal activity against mixed infection of Candida albicans infected in mouse assessed as noninfected animals at 2% formulation administered vaginally bid for 4 days measured 6 hrs post last dose relative to placebo; format: functional
Candida albicans [19] = assay: Antifungal activity against Candida albicans ATCC 14053 assessed as growth inhibition by broth dilution method; format: functional
Trichophyton tonsurans = assay: Antifungal activity against Trichophyton tonsurans assessed as growth inhibition by agar dilution method; format: functional
Candida albicans [20] = assay: Antifungal activity against mixed infection of Candida albicans infected in mouse assessed as noninfected animals at 2% commercial cream formulation administered vaginally bid for 4 days measured on day 7 relative to placebo; format: functional
Candida albicans [21] = assay: Antifungal activity against Candida albicans infected in mouse assessed as noninfected animals at 0.5% formulation in neat PEG 400 solution administered vaginally bid for 4 days measured 6 hrs post last dose relative to placebo; format: functional
Candida albicans [22] = assay: Antifungal activity against mixed infection of Candida albicans infected in mouse assessed as noninfected animals at 0.5% formulation administered vaginally bid for 4 days measured on day 7 relative to placebo; format: functional
Candida albicans [23] = assay: Antifungal activity against mixed infection of Candida albicans infected in mouse assessed as noninfected animals at 0.2% formulation administered vaginally bid for 4 days measured on day 7 relative to placebo; format: functional
Candida albicans [24] = assay: Antifungal activity against mixed infection of Candida albicans infected in mouse assessed as noninfected animals at 1% formulation administered vaginally bid for 4 days measured on day 7 relative to placebo; format: functional
Candida albicans [25] = assay: Antifungal activity against Candida albicans infected in mouse assessed as noninfected animals at 2% formulation in neat PEG 400 solution administered vaginally bid for 4 days measured 6 hrs post last dose relative to placebo; format: functional
Candida albicans [26] = assay: Antifungal activity against Candida albicans infected in mouse assessed as noninfected animals at 2% formulation in neat PEG 400 solution administered vaginally bid for 4 days measured on day 7 relative to placebo; format: functional
Candida albicans [27] = assay: Antifungal activity against Candida albicans infected in mouse assessed as noninfected animals at 1% formulation in neat PEG 400 solution administered vaginally bid for 4 days measured 6 hrs post last dose relative to placebo; format: functional
Nannizzia gypsea = assay: Antifungal activity against Microsporum gypseum assessed as growth inhibition by agar dilution method; format: functional
Trichophyton rubrum = assay: Antifungal activity against Trichophyton rubrum assessed as growth inhibition by agar dilution method; format: functional
Candida albicans [28] = assay: Antifungal activity against Candida albicans ATCC 10231 assessed as growth inhibition by broth dilution method; format: functional

SMILES: Clc1ccc(COC(Cn2ccnc2)c2ccc(Cl)cc2Cl)c(Cl)c1 (stereo unspecified) [MICONAZOLE]
- GI (Microsporum canis): 0.5 µg/mL
- Activity (Candida albicans [1]): 15%
- GI (Staphylococcus aureus [2]): 12.5 µg/mL
- Activity [3]: 80%
- GI (Streptococcus pyogenes): <=0.0008 ug ml-1
- GI [4]: 0.5 µg/mL
- Activity (Candida albicans [5]): 25%
- Activity [6]: 70%
- GI (Epidermophyton floccosum): 5 µg/mL
- Activity [7]: 10%
- Activity (Candida albicans [8]): inactive
- Activity (Candida albicans [9]): 20%
- Activity (Candida albicans [10]): 20%
- Activity (Candida albicans [11]): 33%
- GI (Staphylococcus aureus [12]): 6.25 µg/mL
- GI [13]: 0.5 µg/mL
- GI (Cryptococcus neoformans): <=0.3 ug ml-1
- Activity (Candida albicans [14]): 15%
- GI (Enterococcus faecalis): 3.12 µg/mL
- Activity (Candida albicans [15]): 25%
- Activity (Candida albicans [16]): 75%
- Activity (Candida albicans [17]): 70%
- Activity (Candida albicans [18]): 10%
- GI (Candida albicans [19]): 30 µg/mL
- GI (Trichophyton tonsurans): 0.5 µg/mL
- Activity (Candida albicans [20]): 25%
- Activity (Candida albicans [21]): 30%
- Activity (Candida albicans [22]): 11%
- Activity (Candida albicans [23]): 20%
- Activity (Candida albicans [24]): 25%
- Activity (Candida albicans [25]): 50%
- Activity (Candida albicans [26]): 37%
- Activity (Candida albicans [27]): 60%
- GI (Nannizzia gypsea): 0.05 µg/mL
- GI (Trichophyton rubrum): 0.5 µg/mL
- GI (Candida albicans [28]): 30 µg/mL
